These are literature values, as cited in patent publication US20210322306A1, “ORAL DISSOLVABLE FILM WITH HIGH LOAD OF POLYMERIC BINDER” (CURE Pharmaceutical Holding Corp., priority 2020, published 2021).

For series [1] the following is noted: neat binder.
The conditions of series [2]: neat binder. The source holds these as a separate data set.

As for `OC[C@H]1O[C@@H](O[C@H]2[C@H](O)[C@@H](O)C(O)O[C@@H]2CO)[C@H](O)[C@@H](O)[C@H]1O` (some centres unmarked) [Lactose], the Polymeric Binder: Glass Transition Temperature (Tg) (determined by thermomechanical analysis (TMA)) in series [1] was 95 °C. The Polymeric Binder: Glass Transition Temperature (Tg) (determined by differential scanning calorimetry (DSC)) in series [2] was 102 °C.
